Source: patent publication US9567336B2, “Conjugated TLR7 and/or TLR8 and TLR2 agonists” (CAYLA, priority 2012, dated 2017)

Legend:
human TLR7 = molecular target: T1, human TLR7 (Homo sapiens, UniProt Q9NYK1); assay: HEK-Blue hTLR7 NF-κB/AP-1 SEAP reporter cell assay; type: cell-based; settings: HEK-Blue hTLR7 reporter cells, 10 μg/mL to 10 pg/ml, 24 hours, OD at 655 nm; FIGS. 1A, 1B
T1 construct: host or cells: HEK293 (HEK-Blue hTLR7)
T1 sequence (Q9NYK1 27-1049): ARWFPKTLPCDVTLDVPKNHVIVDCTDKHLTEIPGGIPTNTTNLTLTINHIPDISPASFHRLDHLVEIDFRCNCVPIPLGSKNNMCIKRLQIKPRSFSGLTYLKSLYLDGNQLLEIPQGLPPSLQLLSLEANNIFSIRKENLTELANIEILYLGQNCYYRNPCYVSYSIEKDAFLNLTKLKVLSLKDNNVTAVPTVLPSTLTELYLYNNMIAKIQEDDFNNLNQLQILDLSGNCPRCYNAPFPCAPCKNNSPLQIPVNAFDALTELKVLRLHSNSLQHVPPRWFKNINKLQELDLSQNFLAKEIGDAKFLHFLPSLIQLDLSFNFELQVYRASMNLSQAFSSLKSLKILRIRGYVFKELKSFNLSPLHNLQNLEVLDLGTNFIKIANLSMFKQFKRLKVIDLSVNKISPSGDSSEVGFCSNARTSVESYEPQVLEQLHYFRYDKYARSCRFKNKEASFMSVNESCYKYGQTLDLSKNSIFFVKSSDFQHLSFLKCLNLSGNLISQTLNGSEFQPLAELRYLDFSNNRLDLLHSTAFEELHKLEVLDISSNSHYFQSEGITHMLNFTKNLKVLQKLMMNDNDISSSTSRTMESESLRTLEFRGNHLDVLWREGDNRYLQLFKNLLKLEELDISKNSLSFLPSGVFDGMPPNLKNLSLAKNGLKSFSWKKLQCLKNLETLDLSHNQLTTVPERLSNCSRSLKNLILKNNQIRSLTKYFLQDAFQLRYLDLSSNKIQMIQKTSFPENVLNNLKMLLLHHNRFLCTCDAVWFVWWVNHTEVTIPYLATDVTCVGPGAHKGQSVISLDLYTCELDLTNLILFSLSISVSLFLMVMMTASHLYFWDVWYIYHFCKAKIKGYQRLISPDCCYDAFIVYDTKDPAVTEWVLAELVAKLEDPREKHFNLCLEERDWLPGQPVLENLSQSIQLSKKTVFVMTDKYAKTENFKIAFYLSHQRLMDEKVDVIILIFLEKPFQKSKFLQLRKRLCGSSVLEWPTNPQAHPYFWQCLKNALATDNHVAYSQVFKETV
Protocol: (§1) Some conjugated compounds of the invention were tested for their ability to activate TLR7 and TLR2 receptor signaling. Cell-based assays were carried out using TLR7 and TLR2 reporter cell lines (InvivoGen). The reporter cell lines are engineered HEK293 cells, a human embryonic kidney cell line (ATCC, CRL-1573) that stably express either murine TLR7 (HEK-Blue™ mTLR7) or human TLR7 (HEK-Blue™ hTLR7) or murine TLR2 (HEK-Blue™ mTLR2) or human TLR2 (HEK-Blue™ hTLR2) with an NF-κB-inducible secreted embryonic alkaline phosphatase (SEAP) as the reporter gene. The SEAP reporter gene is placed under the control of the NF-κB and AP-inducible promoter. Stimulation with the corresponding TLR ligand activates NF-κB and AP-1, which induces the production of SEAP. Detection of SEAP is measured following culturing cells in HEK-Blue™ Detection media (InvivoGen). HEK-Blue™ Detection contains a SEAP substrate, which upon hydrolysis by SEAP produces a colorimetric change allowing for detection of SEAP as the protein is secreted. […] These assays were carried out using RAW-Blue™ Cells (InvivoGen), derived from RAW 264.7 mouse leukemic monocytic macrophage cell line (ATCC, CRL 2278) stably overexpressing a NF-κB/AP-1 inducible SEAP reporter constructs.
(§2) To perform the assay, cells were seeded on 96 well microliter plates at 50,000 or 100,000 cells per well for HEK-Blue™ Cells and RAW-Blue™ Cells respectively, and cultured at 37° C. in the presence of the conjugated compounds. The conjugated compounds were prepared as follows: First, stock solutions of the small molecule conjugated compounds of the invention were prepared in ethanol or water to a concentration of 10 mg/ml. A working dilution of the conjugated TLR7-TLR2 small molecules was made up in water and added to cells at a final range of concentrations from 10 μg/mL to 10 pg/ml. The working dilutions of the conjugated TLR7-TLR2 small molecules as the stated concentrations were directly added to the reporter cell lines and incubated at 37° C. for 24 hours. After 24 hours of incubation, the effect on reporter gene activity was determined by reading the OD at 655 nm using iMark™ Microplate Reader (BIO-RAD).
(§3) The conjugated compounds were tested alone for their ability to specifically activate TLR7 and TLR2, alongside the known TLR7 activators R848 or CL264 (InvivoGen) and the TLR2 agonists Pam2CSK4 or Pam3CSK4 (InvivoGen). The specificity of the TLR activity was determined by use of reporter cell lines to the other TLRs (data not shown). […] The molecules show a tendency to activate mouse TLR7 with greater sensitivity than human TLR7. […] Furthermore, dose-dependent responses of the conjugated compounds indicate significant TLR activities of TLR7 and TLR2 compared to the corresponding controls.

murine TLR7 = molecular target: T2, murine TLR7 (Mus musculus, UniProt P58681); assay: HEK-Blue mTLR7 NF-κB/AP-1 SEAP reporter cell assay; type: cell-based; settings: HEK-Blue mTLR7 reporter cells, 10 μg/mL to 10 pg/ml, 24 hours, OD at 655 nm; FIGS. 2A, 2B
T2 construct: host or cells: HEK293 (HEK-Blue mTLR7)
T2 sequence (P58681 27-1050): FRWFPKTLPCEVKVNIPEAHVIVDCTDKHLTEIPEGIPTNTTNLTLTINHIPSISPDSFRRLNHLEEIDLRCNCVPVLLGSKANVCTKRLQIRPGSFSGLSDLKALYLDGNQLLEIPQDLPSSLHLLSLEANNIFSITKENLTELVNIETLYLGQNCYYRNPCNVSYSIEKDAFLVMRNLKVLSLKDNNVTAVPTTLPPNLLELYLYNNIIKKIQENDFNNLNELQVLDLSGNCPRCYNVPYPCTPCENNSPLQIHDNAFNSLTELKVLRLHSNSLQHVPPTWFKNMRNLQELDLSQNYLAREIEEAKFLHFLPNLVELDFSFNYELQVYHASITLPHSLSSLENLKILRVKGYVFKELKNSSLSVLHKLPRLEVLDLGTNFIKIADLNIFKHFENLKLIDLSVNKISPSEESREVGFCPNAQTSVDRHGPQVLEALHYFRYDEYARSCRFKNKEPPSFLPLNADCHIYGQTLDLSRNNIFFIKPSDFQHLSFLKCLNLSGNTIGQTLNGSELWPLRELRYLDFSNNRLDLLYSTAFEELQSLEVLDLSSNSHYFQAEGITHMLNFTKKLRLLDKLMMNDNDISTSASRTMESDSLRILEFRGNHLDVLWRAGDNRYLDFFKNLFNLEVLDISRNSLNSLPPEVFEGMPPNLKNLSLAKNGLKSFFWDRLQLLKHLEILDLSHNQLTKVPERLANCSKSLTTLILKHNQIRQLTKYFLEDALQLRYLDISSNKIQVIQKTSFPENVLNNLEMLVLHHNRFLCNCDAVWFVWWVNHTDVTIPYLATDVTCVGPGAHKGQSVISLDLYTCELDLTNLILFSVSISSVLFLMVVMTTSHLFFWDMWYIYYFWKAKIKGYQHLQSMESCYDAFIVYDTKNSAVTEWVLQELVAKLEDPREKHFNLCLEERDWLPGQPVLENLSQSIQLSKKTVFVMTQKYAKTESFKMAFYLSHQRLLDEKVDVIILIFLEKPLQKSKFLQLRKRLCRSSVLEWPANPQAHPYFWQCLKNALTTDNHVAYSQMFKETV
Protocol: as §1, §2, §3

human TLR2 = molecular target: T3, human TLR2 (Homo sapiens, UniProt O60603); assay: HEK-Blue hTLR2 NF-κB/AP-1 SEAP reporter cell assay; type: cell-based; settings: HEK-Blue hTLR2 reporter cells, 10 μg/mL to 10 pg/ml, 24 hours, OD at 655 nm; FIGS. 3A, 3B
T3 construct: host or cells: HEK293 (HEK-Blue hTLR2)
Protocol: as §1, §2, §3

murine TLR2 = molecular target: T4, murine TLR2 (Mus musculus, UniProt Q9QUN7); assay: HEK-Blue mTLR2 NF-κB/AP-1 SEAP reporter cell assay; type: cell-based; settings: HEK-Blue mTLR2 reporter cells, 10 μg/mL to 10 pg/ml, 24 hours, OD at 655 nm; FIG. 4
T4 construct: host or cells: HEK293 (HEK-Blue mTLR2)
Protocol: as §1, §2, §3

[1] = test system: NF-κB in RAW-Blue™ Cells (RAW 264.7, endogenous TLR7 and TLR2); assay: RAW-Blue Cells NF-κB/AP-1 inducible SEAP reporter assay; type: cell-based, mouse; settings: murine monocytic macrophage cell line RAW 264.7, 24 hours, OD at 655 nm; FIGS. 5A, 5B
Protocol: as §1, §2, §3

T3 sequence (O60603 21-784): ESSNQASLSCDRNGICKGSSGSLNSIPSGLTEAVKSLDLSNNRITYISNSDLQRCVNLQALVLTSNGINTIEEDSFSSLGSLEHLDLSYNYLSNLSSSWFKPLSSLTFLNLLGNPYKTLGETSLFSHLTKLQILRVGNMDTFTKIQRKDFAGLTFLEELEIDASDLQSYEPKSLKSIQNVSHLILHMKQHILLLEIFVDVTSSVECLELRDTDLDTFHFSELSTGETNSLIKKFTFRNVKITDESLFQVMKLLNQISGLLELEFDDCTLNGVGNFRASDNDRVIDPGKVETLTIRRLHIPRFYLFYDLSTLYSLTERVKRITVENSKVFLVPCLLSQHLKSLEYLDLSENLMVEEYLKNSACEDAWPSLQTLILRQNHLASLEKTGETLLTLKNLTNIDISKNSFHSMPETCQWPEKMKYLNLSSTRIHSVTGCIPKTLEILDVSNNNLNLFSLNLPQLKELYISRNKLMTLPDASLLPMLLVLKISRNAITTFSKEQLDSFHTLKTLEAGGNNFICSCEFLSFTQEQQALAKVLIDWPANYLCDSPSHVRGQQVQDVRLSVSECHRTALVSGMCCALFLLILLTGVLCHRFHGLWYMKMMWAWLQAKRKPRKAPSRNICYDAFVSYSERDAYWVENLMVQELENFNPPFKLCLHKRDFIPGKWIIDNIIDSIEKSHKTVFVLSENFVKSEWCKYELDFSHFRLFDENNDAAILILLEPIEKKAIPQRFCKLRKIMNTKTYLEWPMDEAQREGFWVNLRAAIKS
T4 sequence (Q9QUN7 25-784): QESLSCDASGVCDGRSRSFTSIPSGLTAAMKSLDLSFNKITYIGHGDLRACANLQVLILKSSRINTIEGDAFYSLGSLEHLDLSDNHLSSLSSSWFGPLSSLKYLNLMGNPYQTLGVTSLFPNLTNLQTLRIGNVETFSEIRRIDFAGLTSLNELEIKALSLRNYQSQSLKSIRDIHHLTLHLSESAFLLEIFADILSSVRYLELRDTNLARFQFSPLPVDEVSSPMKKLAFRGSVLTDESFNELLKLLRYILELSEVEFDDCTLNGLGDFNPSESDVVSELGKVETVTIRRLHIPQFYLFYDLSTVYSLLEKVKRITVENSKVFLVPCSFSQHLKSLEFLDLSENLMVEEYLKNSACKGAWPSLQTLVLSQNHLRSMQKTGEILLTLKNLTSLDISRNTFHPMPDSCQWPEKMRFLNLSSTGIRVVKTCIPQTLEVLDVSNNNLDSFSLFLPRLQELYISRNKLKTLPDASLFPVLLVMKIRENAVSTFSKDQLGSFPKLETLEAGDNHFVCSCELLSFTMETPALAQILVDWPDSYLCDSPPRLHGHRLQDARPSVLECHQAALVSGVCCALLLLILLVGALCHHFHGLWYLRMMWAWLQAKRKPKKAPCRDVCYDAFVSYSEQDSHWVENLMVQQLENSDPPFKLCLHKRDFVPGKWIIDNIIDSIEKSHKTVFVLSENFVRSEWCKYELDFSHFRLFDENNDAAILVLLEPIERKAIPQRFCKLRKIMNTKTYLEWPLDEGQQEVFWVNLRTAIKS

| SMILES | ability to activate TLR7 receptors (human TLR7) (human TLR7) | ability to activate TLR7 receptors (murine TLR7) (murine TLR7) | ability to activate TLR2 receptor (human TLR2) (human TLR2) | ability to activate TLR2 receptor (murine TLR2) (murine TLR2) | induction of NF-κB in RAW-Blue cells [1] |
| --- | --- | --- | --- | --- | --- |
| CCCCCCCCCCCCCCCC(=O)OCC(CSC[C@H](N)C(=O)N[C@@H](CO)C(=O)Nc1ccc(Cn2c(O)nc3c(N)nc(NCCCC)nc32)cc1)OC(=O)CCCCCCCCCCCCCCC (stereo partly drawn) [CL453, 3-((R)-2-amino-3-((S)-1-(4-((6-amino-2-(butylamino)-8-hydroxy-9H-purin-9-yl)methyl)phenylamino)-3-hydroxy-1-oxopropan-2-ylamino)-3-oxopropylthio)propane-1,2-diyl dipalmitate] | activate TLR7 receptors | activate TLR7 receptors | activate TLR2 receptor |  | activate NF-κB |
| CCCCCCCCCCCCCCCC(=O)N[C@@H](CSCC(COC(=O)CCCCCCCCCCCCCCC)OC(=O)CCCCCCCCCCCCCCC)C(=O)Nc1ccc(Cn2c(O)nc3c(N)nc(NCCCC)nc32)cc1 (mixture of isomers) [CL446, (R)-3-(3-(4-((6-amino-2-(butylamino)-8-hydroxy-9H-purin-9-yl)methyl)phenylamino)-3-oxo-2-palmitamidopropylthio)propane-1,2-diyl dipalmitate] | activate TLR7 receptors | activate TLR7 receptors | activate TLR2 receptor |  | activate NF-κB |

The next lines start with results.

| ability to activate TLR7 receptors (human TLR7) (human TLR7) | ability to activate TLR7 receptors (murine TLR7) (murine TLR7) | ability to activate TLR2 receptor (human TLR2) (human TLR2) | ability to activate TLR2 receptor (murine TLR2) (murine TLR2) | SMILES | induction of NF-κB in RAW-Blue cells [1] |
| --- | --- | --- | --- | --- | --- |
| activate TLR7 receptors | activate TLR7 receptors | activate TLR2 receptor | activate TLR2 receptor | CCCCCCCCCCCCCC(=O)OCCSC[C@H](N)C(=O)N[C@@H](CO)C(=O)Nc1ccc(Cn2c(O)nc3c(N)nc(NCCCC)nc32)cc1 [CL558, 2-((R)-2-amino-3-((S)-1-(4-((6-amino-2-(butylamino)-8-hydroxy-9H-purin-9-yl)methyl)phenylamino)-3-hydroxy-1-oxopropan-2-ylamino)-3-oxopropylthio)ethyltetradecanoate] | activate NF-κB |
| activate TLR7 receptors | activate TLR7 receptors | activate TLR2 receptor | activate TLR2 receptor | CCCCCCCCCCCCCCCCCC(=O)OCCSC[C@H](N)C(=O)N[C@@H](CO)C(=O)Nc1ccc(Cn2c(O)nc3c(N)nc(NCCCC)nc32)cc1 [CL560, 2-((R)-2-amino-3-((S)-1-(4-((6-amino-2-(butylamino)-8-hydroxy-9H-purin-9-yl)methyl)phenylamino)-3-hydroxy-1-oxopropan-2-ylamino)-3-oxopropylthio)ethyl stearate] | activate NF-κB |
| activate TLR7 receptors | activate TLR7 receptors | activate TLR2 receptor | activate TLR2 receptor | CCCCCCCCCCCCCCCC(=O)OCCSC[C@H](N)C(=O)N[C@@H](CO)C(=O)Nc1ccc(Cn2c(O)nc3c(N)nc(NCCCC)nc32)cc1 [CL559, 2-((R)-2-amino-3-((S)-1-(4-((6-amino-2-(butylamino)-8-hydroxy-9H-purin-9-yl)methyl)phenylamino)-3-hydroxy-1-oxopropan-2-ylamino)-3-oxopropylthio)ethyl palmitate] | activate NF-κB |
| activate TLR7 receptors | activate TLR7 receptors | activate TLR2 receptor | activate TLR2 receptor | CCCCCCCCCCCCCC(=O)OCCSC[C@H](N)C(=O)N[C@@H](CCC(=O)Nc1ccc(Cn2c(O)nc3c(N)nc(NCCCC)nc32)cc1)C(=O)OC [CL572, 2-((R)-2-amino-3-((S)-5-(4-((6-amino-2-(butylamino)-8-hydroxy-9H-purin-9-yl)methyl)phenylamino)-1-methoxy-1,5-dioxopentan-2-ylamino)-3-oxopropylthio)ethyl tetradecanoate] |  |
